Test results from PMC4506092, “Utilizing Chemical Genomics to Identify Cytochrome b as a Novel Drug Target for Chagas Disease” (PLoS Pathogens, 2015).

Legend:
[1] = system: T. b. brucei procyclics; assay: T. b. brucei procyclic form in vitro efficacy assay; assay type: cell-based, Trypanosoma brucei brucei; details: 72 hours
Procedure: For conversion from the bloodstream form to the procyclic form, bloodstream form parasites were transferred from HMI-9 medium to Differentiating Trypanosome Medium (DTM, pH = 7.2), consisting of: 6.8 g / L NaCl, 400 mg / L KCl, 200 mg / L CaCl2, 140 mg / L NaH2PO4.H2O, 200 mg / L MgSO4.7H2O, 7.94 g / L HEPES, 2.2 g / L NaHCO3, 110 mg / L sodium pyruvate, 10 mg / L phenol red, 14 mg / L hypoxanthine, 1 mg / L biotin, 760 mg / L glycerol, 640 mg / L proline, 236 mg / L glutamic acid, 1.34 g / L glutamine, 7.5 mg / L hemin (in 50 mM sodium hydroxide), 1X MEM amino acid solution (Invitrogen),1X MEM non-essential amino acids solution (Invitrogen), 28.2 mg / L bathocuproine disulfonate.Na2, 182 mg/L cysteine, 0.2 mM 2-mercaptoethanol, 15% heat-inactivated FBS, and 5 mM sodium citrate and cis-aconitate. Following medium exchange, parasites were incubated at a lower temperature (27°C / 5% CO2), monitored for change in morphology to procyclic parasites, and sub-cultured for long-term cultivation.
For compound screening, 20 μliters (5,000 parasites) of T. b. brucei procyclic culture were added to 384-well plate wells filled with 20 μliters of DTM medium and pre-dispensed compounds (0.25% final DMSO concentration). Plates were then incubated for 72 hours at 27°C / 5% CO2. Cell viability was assessed using the CellTiter-Glo Luminescent Cell Viability Assay (Promega).

[2] = system: S. cerevisiae strain NF7061; assay: S. cerevisiae susceptibility assay, YPD (dextrose) medium; assay type: cell-based, Saccharomyces cerevisiae; details: 24 hours
Procedure: The minimal inhibitory concentrations (MIC) of the compounds for inhibition of S. cerevisiae drug pump knock-out strain NF7061 (MATa his3Δ 1; leu2Δ 0; met15Δ 0; ura3Δ 0; snq2::KanMX; pdr5::KanMX; pdr1::NAT1; pdr3::KanMX; yap1::NAT1; pdr2::LEU2; yrm1::MET; yor1::LYS2) were determined by a modification of the microdilution technique described elsewhere. Briefly, two-fold dilutions of the compound solution in DMSO were made. They were added to each well of 96-well assay plate containing 200 μL per well of either YPD (1% Difco Yeast Extract, 2% Difco Bacto Peptone and 2% Dextrose) or YPG (3% of glycerol in replacement of 2% Dextrose in YP) medium. Early stationary yeast NF7061 cells grown in either medium were collected and resuspended to 2 × 10^5 cells / mL. Ten microliters of the yeast cell suspension were inoculated to each well of the plates containing medium and compound to achieve a final inoculum of approximately 10^4 CFU / mL. The plates were incubated at 30°C for 24 hours (containing YPD) or 48 hours (containing YPG).

[3] = system: T. cruzi intracellular amastigotes (GNF7686-resistant, DR); assay: T. cruzi intracellular amastigote efficacy assay in NIH/3T3 cells, GNF7686-resistant strain; assay type: cell-based; details: Trypanosoma cruzi, NIH3T3, intracellular amastigotes in NIH/3T3, 48-hour treatment
Procedure: To determine compound efficacy on T. cruzi intracellular amastigotes, NIH/3T3 cells were seeded (1,000 cells / well, 40 μL) into microscopy-grade, clear bottom, 384-well plates (Greiner) in RPMI-1640 medium containing 5% heat-inactivated fetal bovine serum and 100 IU penicillin / 100 μg streptomycin per mL. Plates were incubated overnight at 37°C / 5% CO2. Cells were infected with T. cruzi trypomastigotes at a multiplicity of infection (MOI) of 10 for the wild-type strain, and 20 for the GNF7686-resistant mutant strain. After six hours of infection (at 37°C / 5% CO2), the plates were washed by aspirating the medium and replacing with fresh screening medium to remove remaining extracellular trypomastigotes. The plates with infected cells were incubated overnight (37°C / 5% CO2) and compounds dissolved in DMSO were added to plate wells on the following day (0.2% DMSO final concentration). […] The plates were then scanned using the Evotec Opera High Content Screening System (Perkin Elmer) and amastigote proliferation was assessed by counting parasites within the 3T3 cells using CellProfiler version 2.1.0 cell image analysis software. […]

[4] = Saccharomyces cerevisiae, NF7061, MIC visual growth inhibition screen

SMILES	EC50 ([1]; Trypanosoma brucei) [nM]	EC50 [2, 4] [nM]	EC50 [3] [nM]	EC50 [1] [nM]	EC50 ([2]; MIC visual growth inhibition screen) [nM]
CCCCCC[C@H]1C(=O)O[C@H](C)[C@H](NC(=O)c2cccc(NC=O)c2O)C(=O)O[C@@H](C)[C@@H]1OC(=O)CC(C)C [Antimycin A]	30 ± 2	5000	–	–	–
O=C(Cn1ccnc1[N+](=O)[O-])NCc1ccccc1 [Benznidazole]	> 25000	> 40000	820 ± 130	–	–
CCc1c(C)c(C#N)c2nc3ccccc3n2c1O [GNF7686]	590 ± 90	> 40000	660 ± 120	–	–
CO/C(=C/C(N)=O)[C@H](C)[C@H](/C=C/c1csc(-c2csc([C@@H](C)/C=C/C=C/C(C)C)n2)n1)OC [Myxothiazol]	–	–	–	2500 ± 220	30000 ± 10000
CO\C=C(C(=O)OC)/C(C)=C\C=C\c1ccccc1 [Strobilurin]	3200 ± 330	> 40000	–	–	–
